Reference: ChEMBL document CHEMBL1150313, “Novel bis-(arylsulfonamide) hydroxamate-based selective MMP inhibitors” (Bioorg Med Chem Lett, 2008)
pKi: −log10 of the molar value. Activity calls are given as the source filed them. The calls are words filed in the database; no cut-off is given here.

Columns and labels:
Stromelysin-2 [1] = molecular target: T1, Stromelysin-2 (Homo sapiens, UniProt P09238); assay: Inhibition of human recombinant MMP10
[2] = molecular target: T2, Matrix metalloproteinase-9 (Homo sapiens, UniProt P14780); assay: Inhibition of human recombinant MMP9
Matrilysin = molecular target: T3, Matrilysin (Homo sapiens, UniProt P09237); assay: (§1) Inhibition of human recombinant MMP7
T3 sequence (P09237 whole entry): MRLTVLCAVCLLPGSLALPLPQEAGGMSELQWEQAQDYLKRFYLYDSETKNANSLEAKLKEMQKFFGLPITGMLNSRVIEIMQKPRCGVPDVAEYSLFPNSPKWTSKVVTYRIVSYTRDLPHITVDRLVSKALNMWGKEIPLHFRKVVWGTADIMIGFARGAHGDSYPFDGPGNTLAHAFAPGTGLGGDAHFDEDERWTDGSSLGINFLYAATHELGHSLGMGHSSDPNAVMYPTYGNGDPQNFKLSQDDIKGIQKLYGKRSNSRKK

Stromelysin-2 [3] = molecular target: T1, Stromelysin-2; assay: Inhibition of human recombinant MMP10 at 10 uM
Target sequence in this assay (P09238 99-476 limits assumed): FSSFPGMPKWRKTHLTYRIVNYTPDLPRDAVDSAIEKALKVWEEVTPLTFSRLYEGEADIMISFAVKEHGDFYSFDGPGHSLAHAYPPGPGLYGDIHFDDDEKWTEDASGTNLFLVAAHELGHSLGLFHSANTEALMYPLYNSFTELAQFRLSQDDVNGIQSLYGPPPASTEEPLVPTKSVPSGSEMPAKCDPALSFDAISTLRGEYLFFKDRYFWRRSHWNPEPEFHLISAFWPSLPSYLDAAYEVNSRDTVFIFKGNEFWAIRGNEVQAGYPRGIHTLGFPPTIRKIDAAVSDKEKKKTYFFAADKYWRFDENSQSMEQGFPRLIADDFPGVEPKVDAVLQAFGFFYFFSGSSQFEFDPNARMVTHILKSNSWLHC

[4] = molecular target: T4, Matrilysin (Homo sapiens) (UniProt P09237); assay: Inhibition of human recombinant MMP7 at 10 uM
T4 sequence (whole entry): T3 sequence (P09237 whole entry)

[5] = molecular target: T2, Matrix metalloproteinase-9; assay: Inhibition of human recombinant MMP9 at 10 uM
[6] = molecular target: T4, Matrilysin (Homo sapiens); assay: as §1

T2 sequence (P14780 whole entry): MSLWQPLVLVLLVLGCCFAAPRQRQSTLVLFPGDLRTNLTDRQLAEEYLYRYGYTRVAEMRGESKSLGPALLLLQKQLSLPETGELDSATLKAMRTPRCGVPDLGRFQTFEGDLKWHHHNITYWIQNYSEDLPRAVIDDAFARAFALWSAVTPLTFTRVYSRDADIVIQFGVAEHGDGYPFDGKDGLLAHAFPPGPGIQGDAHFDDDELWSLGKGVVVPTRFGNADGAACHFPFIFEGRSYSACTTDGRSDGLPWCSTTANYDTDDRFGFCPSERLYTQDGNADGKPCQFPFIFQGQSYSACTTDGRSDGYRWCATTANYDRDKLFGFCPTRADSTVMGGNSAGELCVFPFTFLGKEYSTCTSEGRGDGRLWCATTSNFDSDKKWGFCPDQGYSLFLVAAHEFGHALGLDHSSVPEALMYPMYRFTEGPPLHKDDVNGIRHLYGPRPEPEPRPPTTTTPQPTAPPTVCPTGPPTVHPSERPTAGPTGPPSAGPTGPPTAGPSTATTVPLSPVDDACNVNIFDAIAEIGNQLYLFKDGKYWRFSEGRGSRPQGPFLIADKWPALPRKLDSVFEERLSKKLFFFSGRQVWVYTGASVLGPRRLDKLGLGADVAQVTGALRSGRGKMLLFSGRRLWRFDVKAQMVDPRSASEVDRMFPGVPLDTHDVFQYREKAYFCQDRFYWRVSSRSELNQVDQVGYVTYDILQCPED

Row | SMILES | pKi (Stromelysin-2 [1]) | pKi [2] | pKi (Matrilysin) | Activity [2] | inhibition (Stromelysin-2 [3]) | further results
1 | O=C(NO)C(CNS(=O)(=O)c1ccccc1C(F)(F)F)NS(=O)(=O)c1ccccc1C(F)(F)F (configuration not stated) | – | – | 5.22 | inactive | – | Activity (Stromelysin-2 [1]): inactive
2 | O=C(NO)C(CNS(=O)(=O)c1ccccc1)NS(=O)(=O)c1ccccc1 (configuration not stated) | 6.45 | 6.64 | 5.55 | – | – | –
3 | O=C(NO)[C@H](CCCCNS(=O)(=O)c1ccccc1)NS(=O)(=O)c1ccccc1 | – | – | – | – | 34.5% | inhibition [5]: 7.5%; inhibition [4]: 44%
4 | O=C(NO)[C@H](CCCCNS(=O)(=O)c1ccc(C(F)(F)F)cc1)NS(=O)(=O)c1ccc(C(F)(F)F)cc1 | – | – | – | inactive | 1.8% | inhibition [4]: 24%
5 | O=C(NO)C(CNS(=O)(=O)c1cccc(C(F)(F)F)c1)NS(=O)(=O)c1cccc(C(F)(F)F)c1 (configuration not stated) | – | – | 6.22 | inactive | – | Activity (Stromelysin-2 [1]): inactive
6 | COc1ccc(S(=O)(=O)NCC(NS(=O)(=O)c2ccc(OC)cc2)C(=O)NO)cc1 (configuration not stated) | 6.47 | 7.41 | 6.22 | – | – | –
7 | O=C(NO)C(CNS(=O)(=O)c1ccc(C(F)(F)F)cc1)NS(=O)(=O)c1ccc(C(F)(F)F)cc1 (configuration not stated) | 4.64 | 5.10 | 5.00 | – | – | –
8 | O=C(NO)C(CNS(=O)(=O)c1ccc(Br)cc1)NS(=O)(=O)c1ccc(Br)cc1 (configuration not stated) | – | 6.82 | 5.26 | – | – | –
9 | O=C(NO)[C@H](CCCNS(=O)(=O)c1ccccc1)NS(=O)(=O)c1ccccc1 | – | – | 5.52 | inactive | – | Activity (Stromelysin-2 [1]): inactive
10 | O=C(NO)[C@H](CCCNS(=O)(=O)c1ccc(Br)cc1)NS(=O)(=O)c1ccc(Br)cc1 | – | – | – | – | 16.4% | inhibition [5]: 9.3%; inhibition [4]: 32%
11 | O=C(NO)[C@H](CCCCNS(=O)(=O)c1ccc(Br)cc1)NS(=O)(=O)c1ccc(Br)cc1 | – | – | 5.66 | inactive | 34.5% | –
12 | O=C(NO)C(CNS(=O)(=O)c1ccc([N+](=O)[O-])cc1)NS(=O)(=O)c1ccc([N+](=O)[O-])cc1 (configuration not stated) | 4.66 | 5.77 | 5.18 | – | – | –
13 | O=C(NO)C(CNS(=O)(=O)c1ccc(I)cc1)NS(=O)(=O)c1ccc(I)cc1 (configuration not stated) | 5.80 | 8.59 | 5.74 | – | – | –
14 | COc1ccc(S(=O)(=O)NCCC[C@H](NS(=O)(=O)c2ccc(OC)cc2)C(=O)NO)cc1 | – | 5.38 | – | – | – | Activity (Stromelysin-2 [1]): 16 µM; Activity [6]: inactive
15 | O=C(NO)C(CNS(=O)(=O)c1ccc(Cl)cc1)NS(=O)(=O)c1ccc(Cl)cc1 (configuration not stated) | – | 6.64 | 6.63 | – | – | –
16 | O=C(NO)C(CNS(=O)(=O)c1c(F)c(F)c(F)c(F)c1F)NS(=O)(=O)c1c(F)c(F)c(F)c(F)c1F (configuration not stated) | – | 3.67 | 5.07 | – | – | Activity (Stromelysin-2 [1]): inactive

Now from value to molecule, other results behind:

Row | pKi (Stromelysin-2 [1]) | pKi [2] | pKi (Matrilysin) | Activity [2] | inhibition (Stromelysin-2 [3]) | SMILES | further results
17 | 5.34 | 5.56 | 6.20 | – | – | O=C(NO)C(CNS(=O)(=O)c1ccc(F)cc1)NS(=O)(=O)c1ccc(F)cc1 (configuration not stated) | –
18 | 3.47 | 3.48 | 5.15 | – | – | O=C(NO)[C@H](CCCNS(=O)(=O)c1ccc(C(F)(F)F)cc1)NS(=O)(=O)c1ccc(C(F)(F)F)cc1 | –
19 | – | – | – | inactive | 34.5% | O=C(NO)[C@H](CCCNS(=O)(=O)c1ccc(Cl)cc1)NS(=O)(=O)c1ccc(Cl)cc1 | inhibition [4]: 31%
20 | – | – | – | inactive | 30.9% | O=C(NO)[C@H](CCCCNS(=O)(=O)c1ccc(I)cc1)NS(=O)(=O)c1ccc(I)cc1 | inhibition [4]: 46%
21 | – | – | 5.51 | inactive | 27.4% | O=C(NO)[C@H](CCCCNS(=O)(=O)c1ccc(F)cc1)NS(=O)(=O)c1ccc(F)cc1 | –
22 | 3.43 | 3.91 | 6.54 | – | – | COc1ccc(S(=O)(=O)NCC(NS(=O)(=O)c2ccc(OC)cc2OC)C(=O)NO)c(OC)c1 (configuration not stated) | –
23 | – | – | – | inactive | 20% | O=C(NO)[C@H](CCCNS(=O)(=O)c1ccc(F)cc1)NS(=O)(=O)c1ccc(F)cc1 | inhibition [4]: 17%
24 | – | 3.82 | 5.32 | – | – | CN(C)c1cccc2c(S(=O)(=O)NCC(NS(=O)(=O)c3cccc4c(N(C)C)cccc34)C(=O)NO)cccc12 (configuration not stated) | –
25 | – | 3.66 | 5.30 | – | – | O=C(NO)[C@H](CCCNS(=O)(=O)c1ccc(I)cc1)NS(=O)(=O)c1ccc(I)cc1 | Activity (Stromelysin-2 [1]): inactive
